The text below walks through data of patent US8183387B2, “Phenylpyrazole derivatives” (Taisho Pharmaceutical Co., Ltd, priority 2007, dated 2012).

Chain of human H3 receptor (Q9Y5N1 whole entry): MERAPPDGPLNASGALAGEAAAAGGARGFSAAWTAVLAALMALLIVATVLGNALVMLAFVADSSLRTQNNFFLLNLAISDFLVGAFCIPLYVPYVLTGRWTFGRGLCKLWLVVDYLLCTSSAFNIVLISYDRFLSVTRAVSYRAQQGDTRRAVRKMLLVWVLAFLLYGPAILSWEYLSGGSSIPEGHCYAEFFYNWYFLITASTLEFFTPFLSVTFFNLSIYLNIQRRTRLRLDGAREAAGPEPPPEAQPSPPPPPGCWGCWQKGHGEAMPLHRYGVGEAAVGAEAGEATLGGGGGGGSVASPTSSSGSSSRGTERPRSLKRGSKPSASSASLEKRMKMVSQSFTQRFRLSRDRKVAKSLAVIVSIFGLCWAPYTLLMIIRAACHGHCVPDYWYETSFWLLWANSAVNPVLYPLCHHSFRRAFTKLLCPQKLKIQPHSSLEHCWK

This experiment addresses human H3 receptor (Homo sapiens, UniProt Q9Y5N1). Put plainly: H3 receptor binding test (R(−)-α-methyl[3H]histamine). Further details: purchased Euroscreen ES-392-M; host or cells: CHO-K1. To be noted: inhibition of R(−)-α-methyl[3H]histamine (2 nM) binding, membrane of human H3 receptor-expressing CHO-K1 cells. Here is the method: A membrane preparation of human H3 receptor-expressing CHO-K1 cells (Euroscreen, ES-392-M, 15 μg protein/200 μl), R(−)-α-methyl[^3H]histamine (Amersham, TRK-1017, specific activity: 1.74 TBq/mmol, 2 nM) and a test drug were reacted at room temperature for 1 hour. After completion of the reaction, the reaction mixture was subjected to suction filtration through a 0.3% polyethyleneimine-treated glass filter (GF/C). The glass filter was washed five times with 50 mM Tris-HCl washing solution (pH 7.4) containing 5 mM EDTA. After washing, the glass filter was dried and a scintillator was added thereto, followed by measurement of radioactivity on the filter using a liquid scintillation counter.
A fixed concentration (2 nM) of R(−)-α-methyl[^3H]histamine was reacted under the above conditions with each test drug at various concentrations to obtain an inhibition curve.
With `O=C(c1cnn(-c2ccc(OCCCN3CCCCC3)cc2)c1)N1CCOCC1` [Example 9, 4-({1-[4-(3-piperidin-1-ylpropoxy)phenyl]-1H-pyrazol-4-yl}carbonyl)morpholine], the IC50 was determined as 8.5 nM.

Take `CC(=O)c1cnn(-c2ccc(OCCCN3CCC[C@H]3C)cc2)c1` [Example 27, 1-[1-(4-{3-[(2R)-2-methylpyrrolidin-1-yl]propoxy}phenyl)-1H-pyrazol-4-yl]ethanone]: the IC50 turned out to be 1.6 nM.

For the compound `O=C1CCCN1c1cnn(-c2ccc(OCCCN3CCCC3)cc2)c1` [Example 32, 1-{1-[4-(3-pyrrolidin-1-ylpropoxy)phenyl]-1H-pyrazol-4-yl}pyrrolidine-2-one], the IC50 is 8.3 nM.

Consider `CC1(C)CCCN1CCCOc1ccc(-n2cc(C(=O)N3CCOCC3)cn2)cc1` [Example 10, 4-[(1-{4-[3-(2,2-dimethylpyrrolidin-1-yl)propoxy]phenyl}-1H-pyrazol-4-yl)carbonyl]morpholine], for which the IC50 was determined as 49.4 nM.

For the compound `C[C@@H]1CCCN1CCCOc1ccc(-n2cc(C(N)=O)cn2)cc1` [Example 2, 1-(4-{3-[(2R)-2-methylpyrrolidin-1-yl]propoxy}phenyl)-1H-pyrazole-4-carboxamide], the IC50 came to 6.5 nM.

With `CCC1CCCN1CCCOc1ccc(-n2cc(C(=O)N3CCOCC3)cn2)cc1` (stereo not drawn) [Example 58, (1-{4-[3-(2-ethylpyrrolidin-1-yl)propoxy]phenyl}-1H-pyrazol-4-yl)(morpholin-4-yl)methanone], the IC50 was determined as 8.7 nM.

Turning to `C[C@@H]1CCCN1CCCOc1ccc(-n2cc(C(=O)c3ccccc3)cn2)cc1` [Example 24, [1-(4-{3-[(2R)-2-methylpyrrolidin-1-yl]propoxy}phenyl)-1H-pyrazol-4-yl](phenyl)methanone], the IC50 was 3.3 nM.

As for `CC1CCCN1CCCOc1ccc(-n2cc(C(=O)NCc3ccc(F)cc3)cn2)cc1` (stereo not drawn) [Example 18, 1-{4-[3-(2-methylpyrrolidin-1-yl)-propoxy]-phenyl}-1H-pyrazole-4-carboxylic acid 4-fluorobenzylamide], the IC50 stood at 3 nM.

With `CC1CCCN1CCCOc1ccc(-n2cc(N3C(=O)CCC3=O)cn2)cc1` (stereo not drawn) [Example 52, 1-(1-{4-[3-(2-methylpyrrolidin-1-yl)propoxy]phenyl}-1H-pyrazol-4-yl)pyrrolidine-2,5-dione], the IC50 came to 6 nM.

As for `CC1CCC(C)N1CCCOc1ccc(-n2cc(C(=O)NC(C)(C)C)cn2)cc1` (stereo not drawn) [Example 12, N-tert-butyl-1-{4-[3-(2,5-dimethylpyrrolidin-1-yl)propoxy]phenyl}-1H-pyrazole-4-carboxamide], the IC50 amounted to 19.3 nM.

For the compound `C[C@@H]1CCCN1CCCOc1ccc(-n2cc(NS(C)(=O)=O)cn2)cc1` [Example 48, N-[1-(4-{3-[(2R)-2-methylpyrrolidin-1-yl]propoxy}phenyl)-1H-pyrazol-4-yl]methanesulfonamide], the 50% inhibitory concentration (IC50) is 4.1 nM.

With `CC1CCN(CCCOc2ccc(-n3cc(C(=O)N4CCOCC4)cn3)cc2)C1` (stereo not drawn) [Example 57, (1-{4-[3-(3-methylpyrrolidin-1-yl)propoxy]phenyl}-1H-pyrazol-4-yl)(morpholin-4-yl)methanone], the IC50 turned out to be 50.7 nM.

For `C[C@@H]1CCCN1CCCCOc1ccc(-n2cc(C(=O)N3CCOCC3)cn2)cc1` [Example 61, [1-(4-{4-[(2R)-2-methylpyrrolidin-1-yl]butoxy}phenyl)-1H-pyrazol-4-yl](morpholin-4-yl)methanone], the IC50 is 39.2 nM.

Regarding `C[C@@H]1CCCN1CCCOc1ccc(-n2cc(N(C)S(C)(=O)=O)cn2)cc1` [Example 49, N-methyl-N-[1-(4-{3-[(2R)-2-methylpyrrolidin-1-yl]propoxy}phenyl)-1H-pyrazol-4-yl]methanesulfonamide], the IC50 stood at 3.1 nM.

As for `C[C@@H]1CCCN1CCCOc1ccc(-n2cc(C(=O)N3CCOC(O)C3)cn2)cc1` (stereo partly drawn) [Example 65, (2-hydroxymorpholin-4-yl)[1-(4-{3-[(2R)-2-methylpyrrolidin-1-yl]propoxy}phenyl)-1H-pyrazol-4-yl]methanone], the half-maximal inhibitory concentration (IC50) was 5.9 nM.

For `CCOC(=O)c1cnn(-c2ccc(OCCCN3CCC[C@H]3C)cc2)c1` [Example 1, 1-(4-{3-[(2R)-2-methylpyrrolidin-1-yl]propoxy}phenyl)-1H-pyrazole-4-carboxylic acid ethyl ester], the IC50 turned out to be 24 nM.

As to `CC(=O)N(C)c1cnn(-c2ccc(OCCCN3CCC[C@H]3C)cc2)c1` [Example 38, N-methyl-N-[1-(4-{3-[(2R)-2-methylpyrrolidin-1-yl]propoxy}phenyl)-1H-pyrazol-4-yl]acetamide], the IC50 amounted to 0.9 nM.

With `C[C@@H]1CCCN1CCCOc1ccc(-n2cc(C(=O)N(CCO)CCO)cn2)cc1` [Example 20, 1-(4-{3-[(2R)-2-methylpyrrolidin-1-yl]propoxy}phenyl)-1H-pyrazole-4-carboxylic acid bis-(2-hydroxyethyl)-amide], the half-maximal inhibitory concentration (IC50) is 6.9 nM.

With `COc1ccc(C(=O)Nc2cnn(-c3ccc(OCCCN4CCCC4C)cc3)c2)cc1` (stereo not drawn) [Example 41, 4-methoxy-N-(1-{4-[3-(2-methylpyrrolidin-1-yl)propoxy]phenyl}-1H-pyrazol-4-yl)benzamide], the IC50 was 2.1 nM.

With `O=C(c1cnn(-c2ccc(OCCCN3CCCC3(F)F)cc2)c1)N1CCOCC1` [Example 59, (1-{4-[3-(2,2-difluoropyrrolidin-1-yl)propoxy]phenyl}-1H-pyrazol-4-yl)(morpholin-4-yl)methanone], the IC50 came to 1180 nM.

Turning to `CC1CCCN1CCCOc1ccc(-n2cc(NC(=O)c3ccc(C#N)cc3)cn2)cc1` (stereo not drawn) [Example 40, 4-cyano-N-(1-{4-[3-(2-methylpyrrolidin-1-yl)propoxy]phenyl}-1H-pyrazol-4-yl)benzamide], the IC50 turned out to be 4.4 nM.

Turning to `CC1CCCN1CCCOc1ccc(-n2cc(C(=O)N3CCC3)cn2)cc1` (stereo not drawn) [Example 21, azetidin-1-yl-(1-{4-[3-(2-methylpyrrolidin-1-yl)propoxy]phenyl}-1H-pyrazol-4-yl)methanone], the IC50 was determined as 5.7 nM.

As to `CC(=O)Nc1cnn(-c2ccc(OCCCN3CCC[C@H]3C)cc2)c1` [Example 37, N-[1-(4-{3-[(2R)-2-methylpyrrolidin-1-yl]propoxy}phenyl)-1H-pyrazol-4-yl]acetamide], the half-maximal inhibitory concentration (IC50) worked out at 2.1 nM.

As for `C[C@@H]1CCCN1CCCOc1ccc(-n2cc(C(=O)N3CCOCC3)cn2)cc1Br` [Example 64, [1-(3-bromo-4-{3-[(2R)-2-methylpyrrolidin-1-yl]propoxy}phenyl)-1H-pyrazol-4-yl](morpholin-4-yl)methanone], the half-inhibitory concentration (IC50) was found to be 10 nM.

Consider `C[C@@H]1CCCN1CCCOc1ccc(-n2cc(NC(=O)Cc3cccnc3)cn2)cc1` [Example 46, N-[1-(4-{3-[(2R)-2-methylpyrrolidin-1-yl]propoxy}phenyl)-1H-pyrazol-4-yl]-2-(pyridin-3-yl)acetamide], for which the IC50 amounted to 1.4 nM.

`C[C@@H]1CCCN1CCCOc1ccc(-n2cc(C(=O)c3ccncc3)cn2)cc1` [Example 26, [1-(4-{3-[(2R)-2-methylpyrrolidin-1-yl]propoxy}phenyl)-1H-pyrazol-4-yl](pyridin-4-yl)methanone]: the IC50 came to 2.6 nM.

Consider `C[C@@H]1CCCN1CCCOc1ccc(-n2cc(C(=O)c3ccc(F)cc3)cn2)cc1` [Example 23, (4-fluorophenyl)[1-(4-{3-[(2R)-2-methylpyrrolidin-1-yl]propoxy}phenyl)-1H-pyrazol-4-yl]methanone], for which the IC50 stood at 2.2 nM.

In general, IC50 refers to the concentration at which inhibition is half-maximal.
